Experimental data: PubChem BioAssay (NCI)
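Compound exposure: 48 hours, 5 concentrations, 96-well plates. At the GI50, growth is halved. TGI denotes the concentration required for complete inhibition of growth.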

What was measured:
Experiment in all cases: NCI-60 cell line screen, 48 h
786-0 renal = tested on: 786-0 renal
A498 renal = tested on: A498 renal
A549 NSCLC = tested on: A549 NSCLC
ACHN renal = tested on: ACHN renal
BT-549 breast = tested on: BT-549 breast
CAKI-1 renal = tested on: CAKI-1 renal
COLO 205 colon = tested on: COLO 205 colon
DU-145 prostate = tested on: DU-145 prostate
EKVX NSCLC = tested on: EKVX NSCLC
HCC-2998 colon = tested on: HCC-2998 colon
HCT-15 colon = tested on: HCT-15 colon
HL-60(TB) leukemia = tested on: HL-60(TB) leukemia
HOP-62 NSCLC = tested on: HOP-62 NSCLC
HOP-92 NSCLC = tested on: HOP-92 NSCLC
HS 578T breast = tested on: HS 578T breast
HT29 colon = tested on: HT29 colon
IGROV1 ovarian = tested on: IGROV1 ovarian
K-562 leukemia = tested on: K-562 leukemia
KM12 colon = tested on: KM12 colon
LOX IMVI melanoma = tested on: LOX IMVI melanoma
M14 melanoma = tested on: M14 melanoma
MALME-3M melanoma = tested on: MALME-3M melanoma
MCF7 breast = tested on: MCF7 breast
MDA-MB-231 breast = tested on: MDA-MB-231 breast
MDA-MB-435 = tested on: MDA-MB-435
MOLT-4 leukemia = tested on: MOLT-4 leukemia
NCI-H226 lung = tested on: NCI-H226 lung
NCI-H460 lung = tested on: NCI-H460 lung

Cc1ncn(-c2ccc(/C=N/Nc3ccnc4cc(Cl)ccc34)cc2)c1C
GI50 (786-0 renal): 1.61 µM | TGI (786-0 renal): 3.25 µM | GI50 (A498 renal): 6.49 µM | TGI (A498 renal): 20.2 µM | GI50 (A549 NSCLC): 1.7 µM | TGI (A549 NSCLC): 3.16 µM | GI50 (ACHN renal): 1.79 µM | TGI (ACHN renal): 3.18 µM | GI50 (BT-549 breast): 1.83 µM | TGI (BT-549 breast): 3.44 µM | GI50 (CAKI-1 renal): 1.63 µM | TGI (CAKI-1 renal): 2.99 µM | GI50 (COLO 205 colon): 1.74 µM | TGI (COLO 205 colon): 3.28 µM | GI50 (DU-145 prostate): 1.88 µM | TGI (DU-145 prostate): 3.7 µM | GI50 (EKVX NSCLC): 3.45 µM | TGI (EKVX NSCLC): 18 µM | GI50 (HCC-2998 colon): 1.92 µM | TGI (HCC-2998 colon): 3.52 µM | GI50 (HCT-15 colon): 1.8 µM | TGI (HCT-15 colon): 3.73 µM | GI50 (HL-60(TB) leukemia): 1.56 µM | TGI (HL-60(TB) leukemia): 3.77 µM | GI50 (HOP-62 NSCLC): 1.74 µM | TGI (HOP-62 NSCLC): 3.2 µM | GI50 (HOP-92 NSCLC): 1.59 µM | TGI (HOP-92 NSCLC): 3.21 µM | GI50 (HS 578T breast): 2.01 µM | TGI (HS 578T breast): 4.48 µM | GI50 (HT29 colon): 1.69 µM | TGI (HT29 colon): 3.33 µM | GI50 (IGROV1 ovarian): 1.97 µM | TGI (IGROV1 ovarian): 3.82 µM | GI50 (K-562 leukemia): 2.07 µM | TGI (K-562 leukemia): 8.07 µM | GI50 (KM12 colon): 2.38 µM | TGI (KM12 colon): 5.79 µM | GI50 (LOX IMVI melanoma): 2.19 µM | TGI (LOX IMVI melanoma): 3.98 µM | GI50 (M14 melanoma): 1.81 µM | TGI (M14 melanoma): 3.48 µM | GI50 (MALME-3M melanoma): 1.93 µM | TGI (MALME-3M melanoma): 3.61 µM | GI50 (MCF7 breast): 1.54 µM | TGI (MCF7 breast): 3.41 µM | GI50 (MDA-MB-231 breast): 2.08 µM | TGI (MDA-MB-231 breast): 3.84 µM | GI50 (MDA-MB-435): 1.65 µM | TGI (MDA-MB-435): 3.05 µM | GI50 (MOLT-4 leukemia): 1.94 µM | TGI (MOLT-4 leukemia): 5.12 µM | GI50 (NCI-H226 lung): 2.42 µM | TGI (NCI-H226 lung): 6.87 µM | GI50 (NCI-H460 lung): 1.78 µM
